# In patent publication US20240051992A1, “THIOPHOSPHOPEPTIDES FOR ULTRAFAST TARGETING OF THE GOLGI APPARATUS” (BRANDEIS UNIVERSITY, priority 2021, published 2024):
# pIC50: −log10 of the molar value. “And” between values parts separate entries of the source, which are not always exact repeats. Equal values may be shown once. Read-outs that look alike come from different tables or passages of the source.
# How the values were obtained:
# [1] = test system: alkaline phosphatase (ALP)
# Procedure: Determination of Dephosphorylation Rates in vitro: To determine the dephosphorylation rates of thiophosphopeptides in vitro, pS1, pO1, pS2, pO2 solutions (PBS, pH 7.4) were prepared at concentration of 120 μM and ALP was added into the solutions to make the final concentration of ALP to 0.1 U/mL at 37° C. At the designated time, the same volume of methanol was added to eliminate the activity of ALP. LC/MS was used analyse the results.
# [2] = test system: HeLa cells; assay: Cytotoxicity against HeLa cells; assay type: cell-based; details: 24 h
# Procedure: (§1) Cell Lines: All cell lines used (HeLa, Saos-2, SJSA-1, OVSAHO, HCC1937, HepG2, OVCAR-4, SKOV-3, MCF-7, HEK293, HS-5) were purchased from the American Type Culture Collection (ATCC, Manassas, VA, USA). HeLa, HepG2, MCF-7 and HEK293 cells were cultured in MEM medium with 10% FBS and 1% P/S (100 U mL^−1 penicillin and 100 μg mL^−1 streptomycin, Invitrogen Life Technologies). Saos-2, SKOV-3 cells were cultured in McCoy's 5A medium with 15% FBS and 1% P/S. HS-5 cells were cultured in DMEM medium with 10% FBS and 1% P/S. SJSA-1, OVSAHO, HCC1937, OVCAR-4 cells were cultured in RPMI-1640 medium with 10% FBS and 1% P/S. All the cells were cultured at 37° C. in a humidified atmosphere of 5% CO2. To determine the cytotoxicity of the compounds, cells were seeded in 96-well cell plate at 1.0×10^4 cells/well for 24 h followed by culture medium removal, and then fresh culture medium containing compounds were added. For fluorescence imaging, cells were seeded in confocal dish at 1.5×10^5 cells/dish for 24 h followed by the addition of fresh medium containing compounds, and then the fluorescence of cells were taken by ZEISS LSM 880 confocal laser scanning microscope with the 63× oil lens.
# [3] = Critical micelle concentration (CMC) determination by dynamic light scattering; assay type: physicochemical; details: thiophosphopeptide in deionized water, pH 7.4, DLS
# Procedure: Critical micelle concentration (CMC) determination: A series of solutions of compounds (pS1, pS2), from the concentration of 0.0625 μM to 400 μM, were prepared in deionized water and adjusted the pH to 7.4. The count rates of the solutions were measured and recorded by an ALV/DLS/SLS-5000 Light Scattering System, which were converted to the intensity of scattered light and then plotted against concentrations to determine the CMC values. Then, ALP (0.1 U/mL) was added to the series of solutions and after 24 h, the same procedures were proceeded to determine CMC values of dephosphorylated pS1 and pS2 (S1 and S2).
# [4] = Cytotoxicity against HEK293 cells; assay type: cell-based; details: human
# Procedure: as §1
# [5] = Cytotoxicity against HS-5 cells; assay type: cell-based; details: human
# Procedure: as §1
# [6] = test system: Golgi of HeLa cells; assay: Staining of pS2-treated HeLa cells with tetracysteine probe FlAsH-EDT2; assay type: cell-based; details: pS2 10 μM, 4 h; FlAsH-EDT2 1 μM, 1 h
# Procedure: Staining cells with FlAsH-EDT 2: Briefly, after incubating HeLa cell lines (1.5×10^5) in 3.5 cm confocal dish for 24 h at 37° C. in a humidified atmosphere of 5% CO2, we discarded the medium and added fresh medium containing pS2 (10 μM) and incubated them together for 4 h. After 4 h, medium was removed followed by three-time wash by cell imaging buffer to eliminate FBS. Then, we added FlAsH-EDT2 solution (cell imaging buffer, 1 μM) into the confocal dish and incubated the HeLa cells at 37° C. for 1 h. Meanwhile, we prepared 1,2-Ethanedithiol (EDT) solution (cell imaging buffer, 250 μM) and after the one-hour incubation of HeLa cells with FlAsH-EDT2, FlAsH-EDT2 was discarded and EDT solution was added to the confocal dish to eliminate the unspecific binding of FlAsH-EDT2 for 10 min. Ten minutes later, EDT solution was removed and cells were washed with cell imaging buffer three times and the fluorescence images were taken by ZEISS LSM 880 confocal laser scanning microscope.
# [7] = test system: SKOV3 cells; assay: CLSM rate of fluorescence increase at Golgi, SKOV-3; assay type: cell-based; details: pS1 10 μM
# Procedure: as §1, with “lens. […]” for “lens.”
# [8] = test system: OVSAHO cells; assay: CLSM rate of fluorescence increase at Golgi, OVSAHO; assay type: cell-based; details: pS1 10 μM
# Procedure: as §1, with “lens. […]” for “lens.”
# [9] = Transmission electron microscopy of pS1 with or without ALP; assay type: physicochemical; details: 5 μM, without ALP
# Procedure: Transmission Electron Microscopy Experiments: The 400 mesh copper grids coated with carbon film was glowing discharged and sample solutions (5 μL of each) was placed onto the grids. After 30 seconds, the sample solution was removed, and the grids were stained by uranyl acetate (2% v/v) and allowed to dry in air. TEM images were obtained with Morgagni 268 transmission electron microscope at the HV of 80 kV with filament of 2.
# [10] = test system: MCF7 cells; assay: CLSM rate of fluorescence increase at Golgi, MCF-7; assay type: cell-based; details: pS1 10 μM
# Procedure: as §1, with “lens. […]” for “lens.”
# [11] = test system: Golgi of HeLa cells; assay: CLSM fluorescence imaging of Golgi accumulation in HeLa cells; details: for Golgi fluorescence: 4 minutes
# [12] = test system: Saos-2 cells; assay: CLSM rate of fluorescence increase at Golgi, Saos-2; assay type: cell-based; details: pS1 10 μM
# Procedure: as §1, with “lens. […]” for “lens.”
# [13] = test system: OVCAR4 cells; assay: CLSM rate of fluorescence increase at Golgi, OVCAR-4; assay type: cell-based; details: pS1 10 μM
# Procedure: as §1, with “lens. […]” for “lens.”
# [14] = test system: HepG2 cells; assay: CLSM rate of fluorescence increase at Golgi, HepG2; assay type: cell-based; details: pS1 10 μM
# Procedure: as §1, with “lens. […]” for “lens.”
# [15] = test system: HCC1937 cells; assay: CLSM rate of fluorescence increase at Golgi, HCC1937; assay type: cell-based; details: pS1 10 μM
# Procedure: as §1, with “lens. […]” for “lens.”
# [16] = test system: HEK293 cells; assay: CLSM rate of fluorescence increase at Golgi, HEK293; assay type: cell-based; details: pS1 10 μM
# Procedure: as §1, with “lens. […]” for “lens.”
# [17] = test system: SJSA-1 cells; assay: CLSM rate of fluorescence increase at Golgi, SJSA-1; assay type: cell-based; details: pS1 10 μM
# Procedure: as §1, with “lens. […]” for “lens.”
# [18] = test system: HS-5 cells; assay: CLSM rate of fluorescence increase at Golgi, HS-5; assay type: cell-based; details: pS1 10 μM
# Procedure: as §1, with “lens. […]” for “lens.”
compound,measurement,setting,value
O=C(Cc1ccc2ccccc2c1)N[C@H](Cc1ccccc1)C(=O)N[C@H](Cc1ccccc1)C(=O)NCCSP(=O)(O)O [pS2],"dephosphorylation by ALP (rate, in words)","[1]; 120 μM, ALP 0.1 U/mL, PBS pH 7.4, 37° C.",rapid dephosphorylation
same,conversion to dephosphorylated product,"[1]; ALP 0.1 U/mL, about 16 minutes",nearly fully converted
same,selectivity against cancer cells (HeLa vs HEK293 and HS-5),[2]; compared with S2,more selective than S2
same,pIC50,[2]; HeLa cells,5.55 and ~5.52
same,inhibitory activity against HeLa cells relative to pO2,[2]; HeLa cells,an order of magnitude higher than that of pO2
same,"rescue of HeLa cells by cell death inhibitors (Z-VAD-FMK, NAc, Nec-1, DFO, Fer-1, disulfiram)",[2]; pS2 10 μM,unable to rescue
same,critical micelle concentration (CMC),[3],9.5 µM
same,IC50 at 24 h,[4],> 100 µM
same,IC50 at 24 h,[5],> 100 µM
same,FlAsH-EDT2 staining of treated cells,[6],fluorescent at the Golgi of the HeLa cells
NBD-(β-Ala-f-f-NH—(CH2)2-thiophosphate [pS1],"dephosphorylation by ALP (rate, in words)",[1]; pH 7.4,fast dephosphorylation
same,fluorescence intensity increase at the Golgi,[7],much slowly
same,fluorescence intensity increase at the Golgi,[8],increase significantly
same,assemblies seen by TEM,[9],micelles
same,critical micelle concentration (CMC),[3],6.0 µM
same,fluorescence intensity increase at the Golgi,[10],much slowly
same,time until distinctive fluorescence appears at the Golgi,[11]; 500 nM,15 min
same,Golgi fluorescence,[11]; 2 μM,much weaker fluorescence at the Golgi
same,Golgi fluorescence,[11]; 5 μM,"green fluorescence clearly still presents at the Golgi, but little at the ER"
same,enhancement of fluorescence intensity at the Golgi from 1 minute to 8 minutes,[11]; 10 μM,about 7 times
same,onset of fluorescence after addition,"[11]; 10 μM, 0 min",appears almost instantly
same,Golgi fluorescence,[11]; 10 μM,bright green fluorescence presents in Golgi and weak fluorescence in ER
same,colocalisation of fluorescence with CellLight Golgi-RFP,"[11]; 10 μM, 8 minutes",overlaps with the red fluorescence from all Golgi-RFP
same,cell morphology in DIC image,"[11]; 10 μM, 20 min",well-spread HeLa cells
same,concentration as low as which S1 accumulates at Golgi,[11]; HeLa cells treated with pS1,500 nM
same,fluorescence at Golgi of pretreated cells in fresh culture medium (exocytosis),"[11]; HeLa pretreated with pS1, fresh medium",drops only slightly over time
same,rate of Golgi accumulation when protein disulfide isomerases (PDIs) are inhibited,[11]; PDI inhibition,slight decrease of the rate of Golgi accumulation
same,accumulation at Golgi after cytochalasin D (CytD),"[11]; pS1 10 μM, CytD 0.5, 1.0 μg/mL, 30 min pretreatment",decreases the accumulation of S1 at Golgi in a concentration-dependent manner
same,rate of fluorescence increase at Golgi after ALP inhibitor DQB,"[11]; pS1 10 μM, DQB 20 μM, 30 min pretreatment",reduce the rate of fluorescence increase at the Golgi
same,accumulation at Golgi with N-ethylmaleimide (NEM),"[11]; pS1 10 μM, NEM 5 mM, 16 min",almost completely eliminates the accumulation of S1 at Golgi
same,rate of fluorescence increase at Golgi after phosphatase inhibitor cocktail set 3 (PIC),"[11]; pS1 10 μM, PIC 4000×, 30 min pretreatment",reduce the rate of fluorescence increase at the Golgi
same,rate of fluorescence increase at Golgi after phospholipase C (PLC),"[11]; pS1 10 μM, PLC 0.2 U, 30 min pretreatment",slightly faster increase of fluorescence in the Golgi
same,rate of fluorescence increase at Golgi after methyl-β-cyclodextrin (mβCD),"[11]; pS1 10 μM, mβCD 5 mM, 30 min pretreatment",significantly decreases the rate of the fluorescence increase at the Golgi
same,accumulation at Golgi with Golgi disruptor brefeldin A (BFA),[11]; with BFA,abolishes the accumulation
same,fluorescence intensity increase at the Golgi,[12],increase significantly
same,fluorescence intensity increase at the Golgi,[13],slightly
same,fluorescence intensity increase at the Golgi,[14],slightly
same,fluorescence intensity increase at the Golgi,[15],increase significantly
same,fluorescence intensity increase at the Golgi,[16],much slowly
same,fluorescence intensity increase at the Golgi,[17],increase significantly
same,fluorescence intensity increase at the Golgi,[18],much slowly
"NBD-(β-Ala-f-f-NH—(CH2)2-phosphate [pO1, reference compound]","dephosphorylation by ALP (rate, in words)",[1]; pH 7.4,taking longer time for dephosphorylation than that of pS1
same,fluorescence in cells,"[11]; 10 μM, 8 minutes",almost no fluorescence
same,fluorescence in cells,"[11]; 100, 50, 20 μM, 4 hours",several scattered fluorescent puncta in cells
same,cellular uptake and localisation,[11]; HeLa cells,requires hours for cellular uptake and largely remains in endosomes
